Data published in publication PMC7827406, “Structure–Activity Relationship (SAR) Study of Spautin-1 to Entail the Discovery of Novel NEK4 Inhibitors” (International Journal of Molecular Sciences, 2021).
Where two headings read alike, the source gives them in different places.

Assays:
LKB1(h) = molecular target: T1, LKB1(h) (Homo sapiens, UniProt Q15831); experiment: biochemical; design: Eurofins KinaseProfiler full panel at Km ATP, residual kinase activity (%) relative to DMSO
T1 construct: gene STK11
T1 sequence (Q15831 1-433): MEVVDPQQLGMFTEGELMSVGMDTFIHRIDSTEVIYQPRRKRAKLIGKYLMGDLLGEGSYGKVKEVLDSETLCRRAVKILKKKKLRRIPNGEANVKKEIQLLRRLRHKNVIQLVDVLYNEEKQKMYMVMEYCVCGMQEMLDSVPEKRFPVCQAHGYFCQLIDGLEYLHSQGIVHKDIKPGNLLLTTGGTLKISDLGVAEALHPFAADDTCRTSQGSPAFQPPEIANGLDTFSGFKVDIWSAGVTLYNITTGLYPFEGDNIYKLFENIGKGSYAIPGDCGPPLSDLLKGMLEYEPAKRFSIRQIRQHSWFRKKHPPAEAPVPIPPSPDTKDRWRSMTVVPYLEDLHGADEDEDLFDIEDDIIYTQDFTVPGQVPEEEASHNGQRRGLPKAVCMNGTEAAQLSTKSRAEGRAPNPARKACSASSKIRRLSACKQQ
T1 sequence (Q7RTN6 1-431 partner): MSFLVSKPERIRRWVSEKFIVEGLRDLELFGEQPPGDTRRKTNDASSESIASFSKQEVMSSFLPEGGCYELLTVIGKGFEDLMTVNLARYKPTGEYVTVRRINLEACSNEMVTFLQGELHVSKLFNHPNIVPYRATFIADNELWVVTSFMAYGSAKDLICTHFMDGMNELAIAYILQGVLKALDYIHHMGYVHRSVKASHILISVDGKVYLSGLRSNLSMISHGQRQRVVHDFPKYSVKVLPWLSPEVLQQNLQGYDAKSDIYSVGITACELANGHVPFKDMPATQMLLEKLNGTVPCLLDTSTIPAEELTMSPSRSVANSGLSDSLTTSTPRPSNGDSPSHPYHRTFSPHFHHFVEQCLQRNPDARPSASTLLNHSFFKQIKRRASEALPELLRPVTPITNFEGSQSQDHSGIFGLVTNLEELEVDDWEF
T1 sequence (Q9Y376 1-341 partner): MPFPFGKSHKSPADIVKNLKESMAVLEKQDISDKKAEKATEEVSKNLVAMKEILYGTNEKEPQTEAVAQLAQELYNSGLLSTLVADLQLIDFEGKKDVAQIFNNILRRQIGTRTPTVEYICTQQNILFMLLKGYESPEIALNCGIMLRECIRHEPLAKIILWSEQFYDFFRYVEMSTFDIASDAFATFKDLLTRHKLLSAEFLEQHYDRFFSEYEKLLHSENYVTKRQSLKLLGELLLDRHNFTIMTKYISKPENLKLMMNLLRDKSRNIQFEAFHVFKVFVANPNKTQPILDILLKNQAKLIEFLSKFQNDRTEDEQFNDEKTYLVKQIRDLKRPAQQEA
Procedure, shortened: (§1)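 Radiometric kinase activity assays were run with ATP at Km and compounds at 10 µM, and remaining activity (%) was reported. A separate competitive binding screen measured DNA-tagged kinase displaced from immobilized active-site ligands by qPCR, giving percent kinase still bound at 10 µM compound in DMSO.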

TTK(h) = molecular target: T2, TTK(h) (Homo sapiens, UniProt P33981); experiment: biochemical; design: Eurofins KinaseProfiler full panel at Km ATP, residual kinase activity (%) relative to DMSO
T2 sequence (P33981 1-857): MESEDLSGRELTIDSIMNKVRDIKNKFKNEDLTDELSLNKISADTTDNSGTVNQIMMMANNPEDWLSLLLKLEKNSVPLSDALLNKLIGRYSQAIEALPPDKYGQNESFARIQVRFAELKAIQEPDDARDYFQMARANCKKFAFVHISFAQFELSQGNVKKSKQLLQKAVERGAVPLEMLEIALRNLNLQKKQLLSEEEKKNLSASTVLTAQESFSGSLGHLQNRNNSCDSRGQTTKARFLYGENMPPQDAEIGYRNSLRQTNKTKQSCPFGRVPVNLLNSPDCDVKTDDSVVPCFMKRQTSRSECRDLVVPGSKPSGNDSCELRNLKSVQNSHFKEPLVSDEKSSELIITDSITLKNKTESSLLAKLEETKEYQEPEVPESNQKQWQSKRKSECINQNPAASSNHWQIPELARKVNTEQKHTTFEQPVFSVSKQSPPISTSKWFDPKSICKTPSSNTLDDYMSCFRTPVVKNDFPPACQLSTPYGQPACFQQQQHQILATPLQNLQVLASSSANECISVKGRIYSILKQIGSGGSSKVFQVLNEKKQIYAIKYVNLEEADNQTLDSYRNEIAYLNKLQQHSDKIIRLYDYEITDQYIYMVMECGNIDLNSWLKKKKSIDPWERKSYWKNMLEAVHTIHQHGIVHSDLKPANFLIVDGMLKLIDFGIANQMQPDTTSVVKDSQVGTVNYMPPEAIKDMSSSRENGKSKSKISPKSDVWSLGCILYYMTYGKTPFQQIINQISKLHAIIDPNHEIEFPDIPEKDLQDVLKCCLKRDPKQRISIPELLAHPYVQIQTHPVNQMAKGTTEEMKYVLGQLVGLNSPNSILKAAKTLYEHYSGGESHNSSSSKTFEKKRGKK
Procedure, shortened: as §1

[1] = read-out: Residual activity (%) Spautin-1 5aa
[2] = read-out: Residual activity (%) 5as
[3] = read-out: Residual activity (%) 5at
[4] = read-out: Residual activity (%) 5ay

`Fc1ccc(CNc2ncnc3ccc(F)cc23)cc1` [5aa, 6-Fluoro-N-(4-fluorobenzyl)-4-Quinazolinamine] was tested, and the remaining activity at 10 µM (LKB1(h); [1]) was 86% and the remaining activity at 10 µM (TTK(h); [1]) was 64%.

`Fc1ccc(CCNc2ncnc3ccc(F)cc23)cc1` [5as, 6-Fluoro-N-[2-(4-Fluorophenyl)Ethyl]-4-Quinazolinamine] showed a remaining activity at 10 µM (LKB1(h); [2]) of 81% and a remaining activity at 10 µM (TTK(h); [2]) of 84%.

`Fc1ccc2ncnc(NCCc3ccc(Cl)cc3)c2c1` [5at, N-[2-(4-Chlorophenyl)Ethyl]-6-Fluoro-4-Quinazolinamine] gave a remaining activity at 10 µM (LKB1(h); [3]) of 73% and a remaining activity at 10 µM (TTK(h); [3]) of 89%.

Work on `COc1ccc2ncnc(Nc3cccc(F)c3)c2c1` [5ay, N-(3-Fluorophenyl)-6-Methoxy-4-Quinazolinamine] yielded a remaining activity at 10 µM (LKB1(h); [4]) of 100% and a remaining activity at 10 µM (TTK(h); [4]) of 104%.
